Assay results taken from PMC10937556, “Phenolic phytochemistry, in vitro, in silico, in vivo, and mechanistic anti-inflammatory and antioxidant evaluations of Habenaria digitata” (Frontiers in Pharmacology, 2024).
Counter-ions that a name gives are not always drawn. Blank lines part the entries; values can stand above or below the compound they belong to.

Legend:
[1] = tested on: histamine-induced paw edema; assay: Histamine-induced paw edema; conditions: reference drug, 1 h
Description: (§1) Employing prostaglandin E2, bradykinin, leukotriene, and histamine induced paw edema assays; the potential anti-inflammatory mechanism of the isolated compound was investigated. […] Sub-planter injections of prostaglandin E2 (0.01 mg/mL) or 10 mg/mL leukotriene or bradykinin (20 mg/mL) or 0.1 mL histamine (1 mg/mL) produced paw edema after 1 h. Each mouse’s paw volume was assessed immediately before and after sub-planter injection of various irritants (inflammatory agents) at 1–5 h.

[2] = tested on: carrageenan-induced paw edema; assay: Carrageenan-induced paw edema; format: in vivo, mice; conditions: dose 5 mg/kg
Description: Mice of both sexes (25–30 g) were used for in vivo anti-inflammatory activity of test samples on the carrageenan-induced inflammation model ([Munir et al., 2020]). Mice were distributed into five groups, with eight animals in each group, divided at random. Group-I served as the negative control and received DMSO at a dose of 10 mL/kg body weight. Group-II served as a positive control, which received aspirin at a dose of 100 mg/kg body weight. […] Each mouse received 1 percent (w/v) saline solution (0.05 mL) of carrageenan in the sub-planter region after a 30-min interval. The paw edema volume was determined using a plethysmometer (LE 7500-plan lab S.L) at 1–5 h intervals after carrageenan was given. […] The percentages of inhibition of inflammation were calculated using the formula given below: % inhibition=EC−ET/EC×100, where “EC” is the average edema of control and “ET” is the edema of the tested group.

[3] = tested on: leukotriene-induced paw edema; assay: Leukotriene-induced paw edema; conditions: standard drug, 3rd hour
Description: as §1

[4] = tested on: prostaglandin E2-induced paw edema; assay: Prostaglandin E2-induced paw edema; conditions: 50 mg/kg
Description: as §1

[5] = tested on: SOD; assay: In vivo antioxidant: SOD activity in brain, heart, liver; parameters: species or system mice; conditions: p < 0.05, D-galactose aging mice
[6] = H2O2 free radical scavenging activity
Description: The antioxidant potential of isolated compounds was determined using this approach. In a phosphate buffer solution (50 mM, pH 7.40), a solution of H2O2 (2 mM) was produced. The crude extract (0.10 mL) was measured in a test tube and diluted to 0.40 mL using phosphate buffer. Thereafter, H2O2 (0.60 mL) was added and thoroughly mixed. […] 230 nm was used to measure the absorbance of the sample and the standard ([Sadiq et al., 2018]). For all the crude samples, the exact process was followed. According to the procedure, the inhibition percentage and IC50 values were computed.

[7] = DPPH free radical scavenging assay
Description: The DPPH (anti-radicals) investigation was carried out according to our earlier reported protocols. Initially, a methanolic DPPH solution was prepared with a concentration of 0.1%. Subsequently, 100 µL of this solution was mixed with an equal volume of the test samples (100 µL) in 96-well plates, following a 30-min incubation period at 25°C ± 3 °C in the dark. Solutions with concentrations ranging from […] were prepared. Five concentrations of 1,000, 500, 250, 125, and 62.5 µM of the Trolox methanolic solution ([…]) were formed. A color reduction in DPPH was observed after incubation; a microplate reader was used, and absorbance was measured at 540 nm ([Mahnashi et al., 2022a]; [Huneif et al., 2022]). The percentage of scavenging was determined by the formula: Scavenging effect %=control absorbance−sample absorbance/control absorbance×100.

[8] = ABTS free radical scavenging assay
Description: The ABTS anti-radicals’ analysis was carried out according to [Shah et al. (2015)]. The ABTS solution was prepared by dissolving ABTS salt (192 mg) in distilled H2O, transferred to a flask (50 mL), and volume was adjusted. Thereafter, 1 mL of the preceding solution was added to 17 µL of K₂S₂O₈ (140 mM) and placed in the dark for 24 h s. The experiment’s ultimate ABTS dilution was achieved by mixing 1 mL of the reaction mixture with 50 mL of methanol. The ABTS solution (190 µL) was mixed with the sample solution (10 µL) and added to 96-well plates, which were then incubated at room temperature in dark for 2 h. Following incubation, the measurement of ABTS color intensity was conducted using a microplate reader at 734 nm. Positive control solutions were prepared at values of 1,000–62.5 µM. The percentage of ABTS scavenging was determined by using the following equation: % ABTS scavenging=Control−Sample/control×100.

SMILES: CN(C)CCC(c1ccc(Cl)cc1)c1ccccn1 (stereo not shown) [chlorpheniramine maleate, reference compound]
Percentage inhibition of histamine-induced paw edema [1]: 71.62 ± 1.16%

SMILES: CC(=O)Oc1ccccc1C(=O)O [Aspirin, reference compound]
Percentage inhibition of paw edema ([2]; 1 h): 47.50 ± 1.10 %
Percentage inhibition of paw edema ([2]; 2 h): 53.61 ± 1.45 %
Percentage inhibition of paw edema ([2]; 3 h): 54.24 ± 1.34 %
Percentage inhibition of paw edema ([2]; 4 h): 57.90 ± 1.93 %
Percentage inhibition of paw edema ([2]; 5 h): 58.62 ± 1.53 %
Percentage inhibition of paw edema ([2]; 5 h, listed as aspirin): 58.62%

SMILES: CC(C)(O)c1ccccc1CC[C@@H](SCC1(CC(=O)O)CC1)c1cccc(/C=C/c2ccc3ccc(Cl)cc3n2)c1 [Montelukast, reference compound]
Percentage inhibition of leukotriene-induced paw edema [3]: 67.02 ± 1.74%

SMILES: Cc1ccc(-c2cc(C(F)(F)F)nn2-c2ccc(S(N)(=O)=O)cc2)cc1 [Celecoxib, reference compound]
Effect on increased PGE2 level [4]: significant reduction

SMILES: Cc1c(C)c2c(c(C)c1O)CCC(C)(C(=O)O)O2 (stereo not shown) [Trolox, reference compound]
SOD activity compared to the model group [5]: higher

H2O2 IC50 [6]: 02 µg/mL
DPPH IC50 [7]: 0.47 µg/mL
ABTS IC50 [8]: 0.12 µg/mL
SMILES: O=C1O[C@H]([C@@H](O)CO)C(O)=C1O [AA, ascorbic acid, reference compound]
H2O2 % inhibition ([6]; 62.5 µg/mL): 71.73 ± 0.66%
H2O2 % inhibition ([6]; 125 µg/mL): 73.70 ± 0.35%
H2O2 % inhibition ([6]; 250 µg/mL): 78.07 ± 0.62%
H2O2 % inhibition ([6]; 500 µg/mL): 83.01 ± 0.42%
H2O2 % inhibition ([6]; 1,000 µg/mL): 87.50 ± 2.26%
DPPH % inhibition ([7]; 62.5 µg/mL): 81.35 ± 0.18%
DPPH % inhibition ([7]; 125 µg/mL): 84.20 ± 0.15%
DPPH % inhibition ([7]; 250 µg/mL): 88.42 ± 0.11%
DPPH % inhibition ([7]; 500 µg/mL): 93.62 ± 0.17%
DPPH % inhibition ([7]; 1,000 µg/mL): 97.53 ± 0.20%
ABTS % inhibition ([8]; 62.5 µg/mL): 81.12 ± 0.34%
ABTS % inhibition ([8]; 125 µg/mL): 84.47 ± 0.49%
ABTS % inhibition ([8]; 250 µg/mL): 87.75 ± 0.14%
ABTS % inhibition ([8]; 500 µg/mL): 91.59 ± 0.30%
ABTS % inhibition ([8]; 1,000 µg/mL): 95.85 ± 0.18%
